# pIC50: −log10 of the molar value. Active and inactive are the calls of the source. No cut-off for these calls is given here.
# How the values were obtained:
# [1] = molecular target: T1, Bromodomain-containing protein 4 (Homo sapiens, UniProt O60885); experiment: Inhibition of BRD4 in human Raji cells assessed as reduction of MYC expression after 4 hrs; assay type: cell-based
# [2] = molecular target: T1, Bromodomain-containing protein 4; experiment: Inhibition of His-FLAG-tagged BRD4 binding domain1 (unknown origin) binding to H4-TetraAc-biotin peptide after 20 mins by AlphaLISA
# Plasma = experiment: Stability of the compound in rat plasma; assay type: ADME, cell-free
# [3] = Plasma protein binding in human; assay type: ADME, cell-free; settings: read-out: PPB (converted)
# CYP3A4 = CYP3A4 (Homo sapiens, UniProt P08684); experiment: Inhibition of CYP3A4 (unknown origin) at 10 uM; assay type: ADME
# [4] = Intrinsic clearance in rat liver microsomes; assay type: ADME, Microsome; settings: read-out: CLH
# [5] = Intrinsic clearance in human liver microsomes; assay type: ADME, Microsome; settings: read-out: CLH
# [6] = Oral bioavailability in rat at 5 mg/kg; assay type: ADME, organism-based; settings: in vivo
# [7] = AUC in rat at 5 mg/kg, po; assay type: ADME, organism-based; design: dose 5 mg/kg, route oral; settings: plasma
# [8] = Volume of distribution at steady state in rat at 1 mg/kg, iv; assay type: ADME, organism-based; design: dose 1 mg/kg, route intravenous; settings: in vivo, read-out: Vdss
# [9] = Half life in rat at 1 mg/kg, iv; assay type: ADME, organism-based; design: dose 1 mg/kg, route intravenous; settings: in vivo
# Rattus norvegicus = experiment: […] clearance in rat at 1 mg/kg, iv; assay type: ADME, organism-based; design: dose 1 mg/kg, route intravenous; settings: in vivo
# Mus musculus [10] = experiment: Inhibition of MYC expression in tumor of NOD/SCID Harlan mouse xenografted with human Raji cells at 100 mg/kg, po after 8 hrs relative to control; assay type: functional, organism-based; design: dose 100 mg/kg
# [11] = Drug uptake in tumor of NOD/SCID Harlan mouse xenografted with human Raji cells at 100 mg/kg, po; assay type: ADME, organism-based, Neoplasm; design: dose 100 mg/kg, route oral; settings: in vivo, read-out: Drug uptake
# Mus musculus [12] = experiment: Inhibition of MYC expression in tumor of NOD/SCID Harlan mouse xenografted with human Raji cells at 100 mg/kg, po up to 8 hrs; assay type: functional, organism-based; design: dose 100 mg/kg
# Mus musculus [13] = experiment: Inhibition in MYC expression in tumor of NOD/SCID Harlan mouse xenografted with human Raji cells at 100 mg/kg, po after 4 hrs; assay type: functional
# Mus musculus [14] = experiment: Inhibition in MYC expression in tumor of NOD/SCID Harlan mouse xenografted with human Raji cells at 100 mg/kg, po; assay type: functional, organism-based; design: dose 100 mg/kg
# Mus musculus [15] = experiment: Inhibition in MYC expression in tumor of po dosed NOD/SCID Harlan mouse xenografted with human Raji cells; assay type: functional, organism-based
# [16] = AUC in mouse at 5 mg/kg, po; assay type: ADME, organism-based; design: dose 5 mg/kg, route oral; settings: plasma
# [17] = Half life in dog at 1 mg/kg, iv; assay type: ADME, organism-based, Canis lupus familiaris; design: dose 1 mg/kg, route intravenous; settings: in vivo
# [18] = Volume of distribution at steady state in dog at 1 mg/kg, iv; assay type: ADME, organism-based, Canis lupus familiaris; design: dose 1 mg/kg, route intravenous; settings: in vivo, read-out: Vdss
# Canis familiaris = experiment: Intrinsic clearance in dog at 1 mg/kg, iv; assay type: ADME, organism-based, Canis lupus familiaris; design: dose 1 mg/kg, route intravenous; settings: in vivo
# [19] = Plasma protein binding in rat; assay type: ADME, cell-free; settings: read-out: PPB (converted)
# [20] = Plasma protein binding in mouse; assay type: ADME, cell-free; settings: read-out: PPB (converted)
# [21] = Intrinsic clearance in dog liver microsomes; assay type: ADME, Canis lupus familiaris, Microsome; settings: read-out: CLH
# [22] = Intrinsic clearance in mouse liver microsomes; assay type: ADME, Microsome; settings: read-out: CLH
# Chain of CYP3A4 (P08684 whole entry): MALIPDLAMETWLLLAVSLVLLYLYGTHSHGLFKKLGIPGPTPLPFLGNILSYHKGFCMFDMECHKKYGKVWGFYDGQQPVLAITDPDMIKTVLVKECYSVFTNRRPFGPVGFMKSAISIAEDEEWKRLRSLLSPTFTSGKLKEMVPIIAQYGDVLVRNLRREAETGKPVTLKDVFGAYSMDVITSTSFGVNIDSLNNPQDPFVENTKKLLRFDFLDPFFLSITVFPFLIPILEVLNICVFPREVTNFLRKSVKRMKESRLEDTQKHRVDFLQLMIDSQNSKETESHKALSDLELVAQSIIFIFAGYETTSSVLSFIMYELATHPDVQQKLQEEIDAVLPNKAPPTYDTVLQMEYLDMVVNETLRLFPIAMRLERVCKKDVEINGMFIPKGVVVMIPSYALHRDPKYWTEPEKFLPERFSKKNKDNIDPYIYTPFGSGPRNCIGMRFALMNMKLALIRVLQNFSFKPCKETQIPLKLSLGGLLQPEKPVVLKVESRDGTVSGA
smiles,measurement,setting,value
Cc1noc2c1-c1sc(C)c(C)c1C(c1ccc(C#N)cc1)=N[C@H]2[C@@H](C)C(N)=O,pIC50,[1],6.15
same,pIC50,[2],6.60
Cc1noc(N)c1-c1ccccc1,pIC50,[2],4.48
CCCC1=N[C@@H](CC(N)=O)c2onc(C)c2-c2sc(C)c(C)c21,pIC50,[1],5.82
same,pIC50,[2],6.52
Cc1noc2c1-c1sc(C)c(C)c1C(c1ccc(N)nc1)=N[C@H]2CC(N)=O,Stability,Plasma,Unstable
same,fraction unbound,[3],0.006
same,inhibition at 10 µM,CYP3A4,20%
same,microsomal CLint,[4],18 µL/min/mg
same,microsomal CLint,[5],5.4 µL/min/mg
same,pIC50,[1],6.42
same,pIC50,[2],7.14
CCNC(=O)C[C@H]1N=C(c2ccc(Cl)cc2)c2c(sc(C)c2C)-c2c(C)noc21,pIC50,[2],5.68
Cc1noc2c1-c1sc(C)c(C)c1C(Cc1ccccc1)=N[C@H]2CC(N)=O,pIC50,[2],5.24
Cc1noc2c1-c1sc(C)c(C)c1C(c1ccccc1)=N[C@H]2CC(N)=O,Stability,Plasma,Unstable
same,fraction unbound,[3],0.018
same,inhibition at 10 µM,CYP3A4,1%
same,microsomal CLint,[4],160 µL/min/mg
same,microsomal CLint,[5],2.4 µL/min/mg
same,pIC50,[1],6.74
same,pIC50,[2],7.54
CC(=O)NC[C@@H]1N=C(c2ccc(Cl)cc2)c2c(sc(C)c2C)-c2c(C)noc21,pIC50,[1],5.66
same,pIC50,[2],6.72
Cc1noc2c1-c1sc(C)c(C)c1C(c1ccc(Cl)cc1)=N[C@H]2Cc1ncc[nH]1,pIC50,[1],5.44
same,pIC50,[2],6.70
Cc1noc2c1-c1sc(C)c(C)c1C(c1ccc(Cl)cc1)=N[C@H]2CC(=O)OC(C)(C)C,pIC50,[1],5.68
same,pIC50,[2],6.54
Cc1cc(Cl)ccc1C1=N[C@@H](CC(N)=O)c2onc(C)c2-c2sc(C)c(C)c21,pIC50,[1],6.80
same,pIC50,[2],7.38
Cc1noc2c1-c1sc(C)c(C)c1C(c1cccc(Cl)c1)=N[C@H]2CC(N)=O,pIC50,[1],6.33
same,pIC50,[2],7.13
CCNC(=O)C[C@@H]1N=C(c2ccc(Cl)cc2)c2c(sc(C)c2C)-c2c(C)noc21,pIC50,[1],6.49
same,pIC50,[2],7.44
Cc1noc2c1-c1sc(C)c(C)c1C(N1CCOCC1)=N[C@H]2CC(N)=O,pIC50,[2],5.96
Cc1noc2c1-c1sc(C)c(C)c1C(c1cncnc1)=N[C@H]2CC(N)=O,pIC50,[2],5.60
Cc1noc2c1-c1sc(C)c(C)c1C(c1ccc(Cl)cc1)=N[C@H]2Cc1nccs1,pIC50,[1],5.68
same,pIC50,[2],6.72
Cc1noc2c1-c1sc(C)c(C)c1C(c1ccc(C#N)cc1)=N[C@H]2CC(N)=O,Stability,Plasma,Unstable
same,bioavailability,[6],44%
same,AUC,[7],504 ng·h/mL
same,Vd,[8],2.22 L/kg
same,half-life,[9],0.393 h
same,CL,Rattus norvegicus,72.5 mL/min/kg
same,fraction unbound,[3],0.041
same,inhibition at 10 µM,CYP3A4,0%
same,microsomal CLint,[4],8.9 µL/min/mg
same,microsomal CLint,[5],4.6 µL/min/mg
same,pIC50,[1],7.04
same,pIC50,[2],7.48
COC(=O)NC[C@@H]1N=C(c2ccc(Cl)cc2)c2c(sc(C)c2C)-c2c(C)noc21,pIC50,[1],5.72
same,pIC50,[2],7.07
Cc1noc2c1-c1sc(C)c(C)c1C(c1ccccc1Cl)=N[C@H]2CC(N)=O,pIC50,[1],5.72
same,pIC50,[2],6.60
Cc1noc2c1-c1sc(C)c(C)c1C(c1ccc(Cl)cc1)=N[C@H]2CC(N)=O,inhibition,Mus musculus [10],inactive
same,concentration,[11],5 µM
same,inhibition,Mus musculus [12],Active
same,inhibition in vivo at 100 mg/kg,Mus musculus [13],75%
same,inhibition,Mus musculus [14],Active
same,inhibition,Mus musculus [15],Dose-dependent effect
same,bioavailability,[6],31%
same,AUC,[7],605 ng·h/mL
same,AUC,[16],723 ng·h/mL
same,half-life,[17],3 h
same,Vd,[8],2.45 L/kg
same,Vd,[18],1.27 L/kg
same,half-life,[9],1.39 h
same,CL,Rattus norvegicus,46.2 mL/min/kg
same,CL,Canis familiaris,5.33 mL/min/kg
same,fraction unbound,[3],0.006
same,inhibition at 10 µM,CYP3A4,20%
same,fraction unbound,[19],0.008
same,fraction unbound,[20],0.019
same,microsomal CLint,[4],27 µL/min/mg
same,microsomal CLint,[21],11 µL/min/mg
same,microsomal CLint,[5],5.5 µL/min/mg
same,pIC50,[1],6.85
same,microsomal CLint,[22],140 µL/min/mg
same,pIC50,[2],7.59
Cc1noc2c1-c1sc(C)c(C)c1C(C1CCOCC1)=N[C@H]2CC(N)=O,pIC50,[2],5.21
Cc1noc2c1-c1sc(C)c(C)c1C(c1ccc(Cl)cn1)=N[C@H]2CC(N)=O,pIC50,[1],6.62
same,pIC50,[2],7.14

# Source: ChEMBL document CHEMBL2429789, “Discovery, Design, and Optimization of Isoxazole Azepine BET Inhibitors” (ACS Med Chem Lett, 2013)
